Experiment [1] has as its system pathological angiogenesis in the mouse cornea. The experiment is described as follows: Corneal stroma micropocket model, VEGF-induced pathological angiogenesis in the mouse cornea. The class given is in vivo, C57BL/6 mice. The note with it: 5 days after operation, compared with VEGF group. Here is the method:
Model of the corneal stroma micropocket was used and the methods were as follows:
Male C57BL/6 mice (aged 4-5 weeks) were intraperitoneally injected with 2% pentobarbital (about 0.1 ml/PCS) for anesthesia. 4% hydrochloric oxybuprocaine ophthalmic solution was locally administrated. Under the stereo microscope, OT syringe needle and 2 ml syringe needle was used to perform a blunt dissection between the layers of corneal stroma at 0.8-1 mm from corneoscleral limbus. A pouch of about 0.6×0.8 mm was formed. Slow-release tablets (mixture of 1:1 (v/v) of 12% poly Hydroxyethyl methacrylate (polyHEMA): sucralfate) were planted respectively into the micropocket, including negative control group (blank tablet), positive control group (VEGF group: 320 ng/μl, 160 ng/tablet), and treatment group (VEGF+ZY1 small peptides of 1 μg/tablet low concentration, 5 μg/tablet moderate concentration, or 10 μg/tablet high concentration). 5 days after operation, the length of the longest new vessel (VL is the length of the longest new blood vessel grown from limbus to the cornea), and the clock hours of corneal neovascularization (CN represents the accumulative clock hours of corneal neovascularization) were observed. Neovascularization area were calculated as followed: Area (mm^2)=0.5*3.14*VL (mm)*CN*0.4 (mm). […] was used for statistical analysis.

The test system of experiment [2] is Human Umbilical Vein Endothelial Cells (HUVECs). The experiment is described as follows: Migration of primary HUVECs, Wound Healing method. It counts as cell-based. The note with it: VEGF (10 ng/ml) + ZY1 1, 10, 25, 50 μg/μl, 6 hours. Here is the method: The Wound Healing method was used as follows:
Primary Human Umbilical Vein Endothelial Cells (HUVECs) (purchased from ScienCell Co.) were inoculated onto a 12-well plate with an inoculation concentration of 1×10^5/ml. After cells had adhered to the wall and grown to 80%-90% of confluence, serum-free culture medium of ECM were added before cultivation at 37° C. for 24 hours. A “+” scratch was carved with the tip of a 200 μl pipettor in each well and serum-free culture medium ECM were added in negative control group. VEGF (10 ng/ml) (purchased from Sigma Co.) in positive control group, and VEGF (10 ng/ml)+ZY1 small peptide having different concentrations (1 μg/μl, 10 μg/μl, 25 μg/μl, 50 μg/μl) in treatment group were added as well. The cultivation was continued. Photos were taken for the scratches of the cells in the 12-well plate at 0 hour and 6 hour, respectively. The average width of the scratches was calculated. The migration activity was determined according to the scratch width. Finally, SPSS11.0.1 was used for statistical analysis.

In experiment [3] the test system is pathological angiogenesis in the mouse retina. The experiment is described as follows: Retinal angiogenesis in hypoxia-induced mice. Particulars: intravitreal, eyeballs removed 5 days later, P<0.01. The class given is in vivo, C57BL/6 mice. As for the experimental part: Model of retinal angiogenesis in hypoxia-induced mice was used and the methods were as follows:
Seven days after birth, C57BL/6 mice were placed together with their breast feeding mother into an environment having a 75%±2% oxygen concentration. The mice were taken out 5 days later, and were injected intravitreally with […] ZY1 small peptides of low concentration (500 ng/μl), moderate concentration (1 μg/μl), high concentration (2 μg/μl) or control sample PBS. Mice were placed in an environment having normal air for further feeding, thereby forming the mice model of retinopathy induced by hypoxia. The eyeballs were removed 5 days later, fixed in 4% paraformaldehyde, embedded in paraffin, cut into sections, and stained with HE. The amount of the nucleus of the vascular endothelial cells in retina was counted under the optical microscope (Magnification was 200 fold). SPSS11.0.1 was used for statistical analysis.

Experiment [4] relates to Human Umbilical Vein Endothelial Cells (HUVECs). The experiment is described as follows: Chemotaxis of primary HUVECs, Transwell Chamber method. It counts as cell-based. Particulars: ZY1 10, 25, 50 μg/μl in upper chamber, VEGF (50 ng/ml) in lower chamber, 24 hours. As for the experimental part: The Transwell Chamber method was used as follows:
HUVECs (purchased from ScienCell Co.) were inoculated onto the upper chamber of Transwell chambers with an inoculation concentration of 6×10^5/ml. Serum-free culture medium of ECM or ZY1 small peptide having different concentrations (10 μg/μl, 25 μg/μl, 50 μg/μl) were added into individual upper chambers. VEGF (50 ng/ml) (purchased from Sigma Co.) was added/not added into the lower chamber as a chemotactic factor. After incubation at 37° C. for 24 hours, the cells on upper surface of Transwell Chamber membrane were wiped and the membrane was washed with PBS. Then the membrane was fixed in 4% paraformaldehyde solution and the lower surface of membrane was stained with hematoxylin, cut and then sections were prepared. Five fields on the chamber membrane under the optical microscope (Magnification was 400 fold) were randomly taken for photograph and the number of cells nucleus was counted. The chemotaxis was determined according to the number of cells nucleus on the lower surface of chamber membrane. Finally, SPSS11.0.1 was used for statistical analysis.

The test system is the same in experiment [5]. Briefly: Lumen formation of primary HUVECs, Matrigel method. The class given is cell-based. The note with it: ZY1 at different concentrations (1, 10, 25, 50 μg/μl), VEGF 50 ng/ml, 6 hours of treatment. As for the experimental part:
The Matrigel method was used as follows:
A 50 μl/well Matrigel (purchased from BD Co.) was added into a 96-well plate before incubation at 37° C. for 30 min. After solidified, the primary HUVECs were inoculated onto the surface of the Matrigel with an inoculation concentration of 8×10^6/ml. Serum-free culture medium of ECM in negative control group, VEGF (50 ng/ml) (purchased from Sigma Co.) in positive control group, and ZY1 small peptide having different concentrations (1 μg/μl, 10 μg/μl, 25 μg/μl, 50 μg/μl) in treatment group were added into the wells. The incubation was continued at 37° C. Photos were taken for the 3 randomized fields of cells in the plate under the microscope (Magnification was 200 fold.) after 6 hours of treatment and the number of formed lumina was counted. Finally, SPSS11.0.1 was used for statistical analysis.

For experiment [6] the test system is unchanged. Briefly: Proliferation of primary HUVECs, MTS method. It counts as cell-based. Particulars: VEGF + ZY1, even at low concentration (1 μg/μl), 24 hours incubation. Here is the method: The MTS method was used as follows:
Human Umbilical Vein Endothelial Cells (HUVECs) (purchased from ScienCell Co.) were inoculated onto a 96-well plate with an inoculation concentration of 4×10^4/ml. After cells had adhered to the wall, serum-free culture medium of ECM were added and the cells were cultivated at 37° C. for 24 hours. Then the serum-free culture medium ECM was added into each well in negative control group. VEGF (10 ng/ml) (purchased from Sigma Co.) in positive control group, VEGF (10 ng/well) ZY1 small peptide having different concentrations (1 μg/μl, 10 μg/μl, 25 μg/μl, 50 μg/μl) in treatment group were added as well. After 24 hours incubation, 20 μl MTS solution (purchased from Promega Corporation) was added in each well. After incubation at 37° C. for 4 hours, the absorbance at 490 nm for each well was measured by using Enzyme-linked Immunoassay Analysis (Bio-Rad Co.). The proliferation activity of cells was determined according to OD490. Finally, SPSS11.0.1 was used for statistical analysis.
Derived Polypeptides were prepared as follows, and the inhibition effect on proliferation of Human Umbilical Vein Endothelial Cells HUVECs was determined according to the methods in Example 6.
(Tetrazolium dyes change colour on reduction, which living cells bring about.)

The values below come from US9023795B2, “Angiogenesis-inhibiting peptide and application thereof” (Shanghai First People's Hospital, priority 2010, dated 2015).

Regarding “CVSLLRCTGCC GDENLHCVPV (CVSLLRCTGCCGDENLHCVPV; angiogenesis-inhibiting peptide ZY1)”, the “inhibition of corneal angiogenesis (neovascularization area)” value in experiment [1] (high concentration (10 μg/tablet) + VEGF 160 ng/tablet) and in experiment [1] (moderate concentration (5 μg/tablet) + VEGF 160 ng/tablet) was “significantly inhibited” in each case. For the same sequence, the “inhibition of migration of primary HUVECs (scratch width)” value in experiment [2] is “significantly inhibited”. Besides, the “inhibition of pathological angiogenesis in mouse retina (amount of nucleus of vascular endothelial cells)” value in experiment [3] (high concentration (2 μg/μl)) and in experiment [3] (moderate concentration (1 μg/μl)) was “significantly inhibited” in each case. Also, the “inhibition of chemotaxis of HUVECs (number of cell nuclei on lower surface of chamber membrane)” value in experiment [4] was “significant inhibition effect”. For the same sequence, the “inhibition of lumen formation of primary HUVECs (number of formed lumina)” value in experiment [5] is “significant inhibition effect”. Further, in experiment [6], the “inhibition of proliferation of HUVECs (OD490)” value was “significantly inhibited”.
